Results taken from article PMC4569013, “Massive Bioaccumulation and Self‐Assembly of Phenazine Compounds in Live Cells” (Advanced Science, 2015).

Assays:
RAW264.7 macrophages [1] = assay: Cell associated mass measurements (bioaccumulation, pmole/cell); format: cell-based; details: 72 h incubation, normalized by number of cells
Protocol: Cell Associated Mass Measurements: […] After an overnight incubation (37 °C, 5% CO2), cells were incubated with 100 μL of the media (DMEM with 5% FBS) containing 5 × 10^−6 M clofazmine or its chemical derivatives (2.5 × 10^−6 M of Compound “I”). Media containing each compound was replaced every day during the 72 h incubation. After the incubation, media was removed and cells were washed with Hank's balanced salt solution (HBSS) buffer (No. 14025; Invitrogen) twice. RAW264.7 macrophage cells in buffer were scraped and MDCK epithelial cells were exposed to Trypsin‐EDTA solution for detachment from the plates for cell number counting and quantification of cell‐associated masses. After centrifugation (650 × g), supernatant was removed and cell pellets were resuspended in 0.1 M citric acid/0.1 M trisodium citrate buffer (pH 5) for cell counting as previously reported.7 Equal numbers of cells in 100 μL in buffer were transferred to 96 well plates and 100 μL of detergent (ATCC, 30‐1010K) was added into wells for cell lysis. Chemical absorbance from each well was measured by the UV–vis microplate reader (Synergy 2, BioTek Instruments, Winooski, VT) at 490 nm wavelength and cell‐associated mass of each compound was calculated by a standard curve generated separately using the same media and presented as pmole/cell by normalizing the amount of chemical in each cell population sample by the number of cells in each sample.

RAW264.7 macrophages [2] = assay: Confocal fluorescence microscopy, intracellular localization of inclusions; format: cell-based; details: 5 × 10^−6 M, 72 h, live cells
Protocol: (§1) Confocal Fluorescent Microscopy: A Nikon A1 confocal microscope was used for further investigation of live cells incubated with chiral pairs of compounds (T and U) and the parent compound, P. Since crystals or vesicular forms containing chemicals inside the cells incubated with Compound P, T, or U were fluorescent when viewed with the TRITC filter sets, intracellular distribution of these compounds in RAW264.7 or MDCK cells were visualized using a Nikon A1 confocal microscopy (Nikon Instruments Inc., Melville, NY) equipped with diode‐based lasers and a Nikon Apo 60×/1.4 NA oil immersion lens. Briefly, RAW264.7 macrophages or MDCK epithelial cells were seeded in the 8‐well Nunc Lab‐Tek II chambered (#1.5) cover glasses (Thermo Scientific, Pittsburgh, PA) at a density of 8 × 10^3 cells cm^−2 (RAW264.7 cells) or 1.5 × 10^4 cells cm^−2 (MDCK cells) and allowed to adhere overnight (37 °C, 5% CO2). Then, 5 × 10^−6 M of Compound “P” or the related isomers, “T” or “U” in DMEM with 5% FBS (300 μL) was added to the cells and the cells were incubated for 72 h (37 °C, 5% CO2). For live cell imaging, after the removal of media, cells were washed with HBSS buffer twice. Hoechst 33342 (Invitrogen, Carlsbad, CA) was used for staining cell nuclei and FM 1‐43 (Molecular Probes T35356, Invitrogen) for the plasma membrane. Cells were incubated with 300 μL of 1:1 (v/v) dye mixtures of 5 μg mL^−1 Hoechst 33342 and 7 × 10^−6 M FM 1‐43 in HBSS for 15 min at room temperature. Without fixative, the confocal imaging of the live cells was performed using lasers for DAPI (excitation/emission wavelength: 405 nm/450 ± 25 nm), FITC (488 nm/525 ± 25 nm), and TRITC (561 nm/596 ± 25 nm) channels. Z‐stack images of the cells were captured along the Z‐axis (interval, 1 μm) in three fluorescence channels and analyzed by using the Nikon NIS‐Elements 3.2 confocal software (Nikon Instruments Inc., Melville, NY). […]

RAW264.7 macrophages [3] = assay: Linear diattenuation anisotropy microscopy (LC-PolScope) of intracellular inclusions; format: cell-based; details: 72 h, compared with clofazimine
Protocol: The optical design was built on a Nikon Eclipse Ti microscope equipped with the liquid crystal universal compensator consisting of a linear polarizer and a pair of liquid crystal devices. The LC compensator was part of the transillumination path and was used to illuminate the specimen with monochromatic, linearly polarized light of varying polarization orientation. There was no polarization analyzer present in the imaging path. Quantitative intensity images were recorded by a charge‐coupled device camera and a desktop computer calculated the average transmittance, the differential transmittance and the polarization orientation leading to maximum transmittance for each optically resolved picture element (pixel). Acquisition and processing steps were controlled using OpenPolScope plugins for the open source imaging programs ImageJ and Micro‐Manager (MMStudio version 1.4.15). With the combination of hardware and software, polarized light images were acquired at high sensitivity and high spatial resolution for measuring linear diattenuation.
Linear Diattenuation Microscopy Data Acquisition and Analysis: After RAW264.7 macrophages or MDCK epithelial cells were incubated with the compound in the chambered cover glasses for 72 h, at the same time of performing transmitted microscopic examination, cell specimens were examined under linear diattenuation microscopy using the Nikon Eclipse Ti microscope with 40×/0.75 NA objective and monochromatic light of two different center wavelengths, 546 and 623 nm (passband 30 nm). In the OpenPolScope software, Pol‐Acquisition and Pol‐Analyzer plugins (version 2.0) were used to capture, process, and analyze the attenuation images. Before imaging the samples, the setup was calibrated using a specially prepared slide featuring four small pieces of linear polarization filters. The transmission axes of the filters were oriented in steps of 45° providing a means to calibrate the LC universal compensator settings. After the calibration, a sample slide was inserted and first a sequence of polarized light images of a clear, fully transmitting sample area was recorded, followed by an image sequence featuring the cells under investigation. The images of the clear area were used to determine instrument factors which were needed for computing the average and the polarization dependent loss in transmittance in cellular components visible in the second image.10
Linear diattenuation is a material property that can occur in materials such as crystals, in which the light absorbing molecules are arranged with a preferred orientation. The molecular alignment creates principal axes in the material denoting polarization directions for which light is maximally and minimally transmitted. Diattenuation is the difference between maximal (T max) and minimal (T min) transmittance, divided by their sum (Equation (1)): (1) Diattenuation=Tmax‐Tmin/Tmax+Tmin
To simultaneously measure the attenuation of many crystals with arbitrary orientations, we developed algorithms based on four specimen images, each recorded using light of a different polarization orientation: 0°, 45°, 90°, and 135°.10 The four raw images were used to calculate the average and differential transmittance and the orientation of maximum transmittance in every resolved image pixel. To isolate and analyze quantitative data of the objects (crystals), the anisotropy or maximum transmittance axis orientation image file opened in ImageJ was inverted (Ctrl + Shift + I) and thresholded using ImageJ's default automatic method (“Binary” → “Convert to Mask”). By using the ImageJ's algorithm, “Analyze Particles,” data of anisotropy or maximum transmittance axis orientation of objects in images could be obtained automatically. Diattenuation ratios were calculated by dividing anisotropy at 623 nm by that at 546 nm.

MDCK epithelial cells = assay: Confocal fluorescence microscopy, intracellular localization of inclusions; format: cell-based, Canine; details: 5 × 10^−6 M, 72 h, live cells
Protocol: as §1

| Structure (SMILES) | Accumulation in macrophages (RAW264.7 macrophages [1]) | Intracellular localization of compound (fluorescence, TRITC channel) (RAW264.7 macrophages [2]) | Diattenuation anisotropy of intracellular inclusions (RAW264.7 macrophages [3]) | Intracellular localization of compound (fluorescence, TRITC channel) (MDCK epithelial cells) |
| --- | --- | --- | --- | --- |
| Clc1ccc(Nc2cc3nc4ccccc4n(-c4ccc(Cl)cc4)c-3cc2=NCCc2ccccc2)cc1 [Compound P] | greatest accumulation | localized at the periphery of the cell nuclei | higher diattenuation anisotropy | localized at the periphery of the cell nuclei |
| C[C@@H](CN=c1cc2n(-c3ccc(Cl)cc3)c3ccccc3nc-2cc1Nc1ccc(Cl)cc1)c1ccccc1 [Compound U] | greatest accumulation | localized at the periphery of the cell nuclei | even higher anisotropy | localized at the periphery of the cell nuclei |
